Patent US20150342964A1, “DEXAMETHASONE POLYMER IMPLANT FOR PAIN” (Warsaw Orthopedic, Inc., priority 2014, published 2015)
“Also recorded” adds a separate entry of the source.

Assays:
[1] = Body weight, side effects and adverse reactions observed over the 57-day rat CCI study; conditions: systemic, sc 0.02 mg/kg every day, 57-day study
[2] = test system: rat chronic constriction injury (CCI) model; experiment: von Frey Monofilament Test (mechanical/tactile allodynia) in rat CCI model of neuropathic pain; conditions: systemic, subcutaneous 0.02 mg/kg every day from day 7 post-surgery
[3] = test system: rat chronic constriction injury (CCI) model; experiment: Thermal Paw Withdrawal Latency Test (thermal hyperalgesia) in rat CCI model of neuropathic pain; conditions: systemic, subcutaneous 0.02 mg/kg every day from day 7 post-surgery; p<0.05

Row | SMILES | overt side effects or adverse reactions at the site of injection [1] | mechanical allodynia (paw withdrawal threshold) relative to either PBS or unloaded pellet [2] | thermal paw withdrawal responses/latencies relative to both PBS and unloaded PLA pellet [3]
1 | Clc1cccc(Cl)c1N=C1NCCN1 [clonidine] | no overt side effects or adverse reactions at the site of injection; also recorded: did not cause any overt side effects or adverse reactions | no effect on paw withdrawal threshold responses | increased thermal paw withdrawal latencies on various test days
2 | C[C@@H]1C[C@H]2[C@@H]3CCC4=CC(=O)C=C[C@]4(C)[C@@]3(F)[C@@H](O)C[C@]2(C)[C@@]1(O)C(=O)CO [dexamethasone, (8S, 9R, 10S, 11S, 13S, 14S, 16R, 17R)-9-Fluoro-11,17-dihydroxy-17-(2-hydroxyacetyl)-10,13,16-trimethyl-6,7,8,11,12,14,15,16-octahydro-cyclopenta[a]phenanthren-3-one] | no overt side effects or adverse reactions at the site of injection; also recorded: did not cause any overt side effects or adverse reactions | – | –
